For the assay, the target named is T1, bromodomain of BRD9 (GST fusion) / acetylated histone H4 peptide (BET Bromodomain Ligand) (Homo sapiens, UniProt Q9H8M2).
T1 construct: A GST fusion protein of the bromodomain of BRD9; purchased BPS Biosciences #32519
T1 sequence (Q9H8M2 136-240 limits assumed): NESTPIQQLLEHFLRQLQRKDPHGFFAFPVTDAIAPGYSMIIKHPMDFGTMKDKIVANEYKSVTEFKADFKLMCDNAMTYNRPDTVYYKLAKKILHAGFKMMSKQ
Kind of assay: BRD9-H4 Tetraacetylated Peptide Inhibition AlphaScreen. Type of assay: binding. From the text:
BRD9-H4 Tetraacetylated Peptide Inhibition AlphaScreen
This assay is used to identify compounds which inhibit the interaction of the bromodomain of BRD9 with a tetra-acetylated peptide based on the sequence of histone H4 (termed the “BET Bromodomain ligand” as purchased from BPS Biosciences).
A GST fusion protein of the bromodomain of BRD9 and an acetylated histone H4 peptide (the “BET Bromodomain Ligand” are purchased as part of the BRD9 Inhibitor Screening Assay Kit at BPS Biosciences (Cat. Number: #32519)
AlphaScreen Beads (Perkin Elmer):
AlphaLISA Glutathione Acceptor Beads
AlphaScreen Streptavidin Donor Beads
Assay plates: Proxiplate-384 PLUS, white (PerkinElmer)
The assay is done in a darkened room below 100 Lux.
Compounds are dispensed onto assay plates using an Access Labcyte Workstation with the Labcyte Echo 550 from a DMSO solution. For the chosen highest concentration of 100 μM, 150 nl of compound solution are transferred from a 10 mM DMSO solution. A series of 11 concentrations is transferred for each compound at which each concentration is five-fold lower than the previous one (i.e. 100 μM, 20 μM, 4 μM, 0.8 μM, etc). DMSO is added such that every well has a total of 150 nl of DMSO.
15 μl of the resulting mix are added to the assay plates that contain 150 nl of the compounds. After 60 min at room temperature the signal is measured in a PerkinElmer Envision HTS Multilabel Reader using the AlphaScreen specifications from PerkinElmer.
Each plate contains negative controls where biotinylated BET Bromodomain Ligand and GST-BRD9 are left out and replaced by assay buffer. Negative control values are entered as low basis value when using the software GraphPad Prism for calculations.
On the technique in general: Alpha assays give light when donor and acceptor beads are brought close together.

In turn, `Cc1cc(-c2ccc(C(=O)N3CCN(C)CC3)cc2)cn(C)c1=O` [Compound I-9] gave an IC50 of 172 nM. That is a sub-micromolar value.

Compound `Cc1cc(-c2ccc(CN3CCOCC3)cc2)cn(C)c1=O` [Compound I-14] displayed an IC50 of 109 nM.

Turning to `Cc1cc(-c2ccc(C(=O)N3CCN(C)CC3)c(F)c2)cn(C)c1=O` [Compound I-15], the IC50 is 279 nM.

For the compound `Cc1cc(-c2cccc(OC(F)(F)F)c2)cn(C)c1=O` [Compound I-16], half-maximal inhibition (IC50) required 568 nM.

`Cc1c(-c2ccc(C(=O)N3CCN(C)CC3)cc2)cn(C)c(=O)c1C` [Compound I-18] gave an IC50 of 113 nM.

Turning to `Cc1ccc(-c2cn(C)c(=O)c(C)c2C)cc1N` [Compound I-19], the midpoint of inhibition, the IC50, lay at 333 nM.

Take `Cc1ccc(-c2cc(C)c(=O)n(C)c2)cc1NS(C)(=O)=O` [Compound I-23, N-[5-(1,5-Dimethyl-6-oxo-1,6-dihydro-pyridin-3-yl)-2-methyl-phenyl]-methanesulfonamide]: the midpoint of inhibition, the IC50, lay at 609 nM.

`CCn1cc(-c2ccc(C)c(NS(C)(=O)=O)c2)cc(C)c1=O` [Compound I-24] had an IC50 of 3310 nM.

The compound `Cc1ccc(-c2cn(C)c(=O)c(C)n2)cc1NS(C)(=O)=O` [Compound I-25] showed an IC50 of 6580 nM. Compared with the last compound, the IC50 is about 2-fold higher.

In turn, `Cc1ccc(-c2cc(C)c(=O)n(C)n2)cc1NS(C)(=O)=O` [Compound I-26] gave an IC50 of 2560 nM.

The compound `CN1CCN(C(=O)c2ccc(-c3cc(C(F)F)c(=O)n(C)c3)cc2)CC1` [Compound I-27] displayed an IC50 of 705 nM. Compared with the last compound, the IC50 is about 3.6-fold lower.

For `Cc1ccc(-c2cc(C)c(=O)n(C3CC3)c2)cc1NS(C)(=O)=O` [Compound I-28], the IC50 is 5120 nM.

In the case of `Cc1ccc(-c2cc(N)c(=O)n(C)c2)cc1NS(C)(=O)=O` [Compound I-29], the IC50 worked out at 4220 nM.

In turn, `Cc1cc(-c2ccc(C(=O)NC3CCN(C)CC3)cc2)cn(C)c1=O` [Compound I-30, 4-(1,5-Dimethyl-6-oxo-1,6-dihydro-pyridin-3-yl)-N-(1-methyl-piperidin-4-yl)-benzamide] returned an IC50 of 444 nM.

As to `CNc1cc(-c2ccc(C)c(NS(C)(=O)=O)c2)cn(C)c1=O` [Compound I-32, N-[2-Methyl-5-(1-methyl-5-methylamino-6-oxo-1,6-dihydro-pyridin-3-yl)-phenyl]-methanesulfonamide], half-maximal inhibition (IC50) required 2030 nM. This IC50 is about 4.6-fold higher than that of the compound before.

Compound `Cc1cc(-c2cc(C)c(=O)n(C)c2)ccc1CN1CCNCC1` [Compound I-33, 1,3-Dimethyl-5-(3-methyl-4-piperazin-1-ylmethyl-phenyl)-1H-pyridin-2-one] had an IC50 of 22 nM.

As for `Cc1cc(-c2cc(C)c(=O)n(C)c2)ccc1CN1CCN(C)CC1` [Compound I-34], the IC50 was found to be 17 nM.

The compound `Cc1cc(-c2cc(C)c(=O)n(C)c2)ccc1CN(C)C` [Compound I-35] returned an IC50 of 47 nM.

Take `CNCc1ccc(-c2cc(C)c(=O)n(C)c2)cc1C` [Compound I-36]: 42 nM corresponded to half-maximal inhibition (IC50).

In the case of `Cc1cc(-c2ccc(C(=O)N3CCNCC3)cc2)cn(C)c1=O` [Compound I-37, 1,3-Dimethyl-5-[4-(piperazine-1-carbonyl)-phenyl]-1H-pyridin-2-one], 34 nM corresponded to half-maximal inhibition (IC50).

`Cc1cc(-c2ccc(C(=O)N3CC4CCC3C4)cc2)cn(C)c1=O` (centres unmarked) [Compound I-38] yielded an IC50 of 256 nM. This IC50 is about 7.5-fold higher than that of the compound before.

In turn, `Cc1cc(-c2ccc(C(=O)N3CC(O)C3)cc2)cn(C)c1=O` [Compound I-39] gave an IC50 of 294 nM.

Take `Cc1cc(-c2ccc(C(=O)N3CCCC3)cc2)cn(C)c1=O` [Compound I-40]: half-maximal inhibition (IC50) required 496 nM. Against the preceding compound, the IC50 is about 1.7-fold higher.

With `Cc1ccc(-c2cc(C)c(=O)n(C)c2)cc1NCc1cccnc1` [Compound I-42, 1,3-Dimethyl-5-{4-methyl-3-[(pyridin-3-ylmethyl)-amino]-phenyl}-1H-pyridin-2-one], the IC50 came to 470 nM.

`CN1CCN(C(=O)c2ccc(-c3cc(I)c(=O)n(C)c3)cc2)CC1` [Compound I-43, 3-Iodo-1-methyl-5-[4-(4-methyl-piperazine-1-carbonyl)-phenyl]-1H-pyridin-2-one]: 65 nM corresponded to half-maximal inhibition (IC50). This IC50 lies about 7.2-fold lower than the previous one.

With `CN1CCN(C(=O)c2ccc(-c3cc(Br)c(=O)n(C)c3)cc2)CC1` [Compound I-44], the IC50 is 508 nM.

`CN1CCN(C(=O)c2ccc(-c3cc(O)c(=O)n(C)c3)cc2)CC1` [Compound I-45, 3-Hydroxy-1-methyl-5-[4-(4-methyl-piperazine-1-carbonyl)-phenyl]-1H-pyridin-2-one] showed an IC50 of 2090 nM.

Take `Cc1cc(-c2ccc(C3(N)CC3)cc2)cn(C)c1=O` [Compound I-69]: the IC50 stood at 15 nM. Against the preceding compound, the IC50 is about 140-fold lower.

For the compound `Cc1cc(-c2ccc(CN)cc2)cn(C)c1=O` [Compound I-78], the IC50 came to 130 nM.

For the compound `Cc1cc(-c2ccc(CN3CCNCC3)cc2)cn(C)c1=O` [Compound I-79], the IC50 was 60 nM.

Take `Cc1cc(-c2ccc(CN3CCN(C)CC3)cc2)cn(C)c1=O` [Compound I-88]: the IC50 is 78 nM.

Consider `COc1cc(-c2cc(C)c(=O)n(C)c2)ccc1C(=O)N1CCN(C)CC1` [Compound I-89, 5-[3-methoxy-4-(4-methyl-piperazine-1-carbonyl)-phenyl]-1,3-dimethyl-1H-pyridin-2-one], for which the IC50 was 70 nM.

Turning to `Cc1cc(-c2ccc(N)cc2)cn(C)c1=O` [Compound I-91], half-maximal inhibition (IC50) required 128 nM.

The compound `Cc1cc(-c2ccc([C@H](C)N)cc2)cn(C)c1=O` [Compound I-93] returned an IC50 of 112 nM.

Take `Cc1cc(-c2ccc([C@@H](C)N)cc2)cn(C)c1=O` [Compound I-94]: the IC50 came to 334 nM.

For the compound `Cc1cc(-c2ccc(C(=O)c3cncnc3)cc2)cn(C)c1=O` [Compound I-97], half-maximal inhibition (IC50) required 267 nM. This IC50 and that of the compound before are within 1.5-fold of each other.

In turn, `Cc1cc(-c2ccc(C(=O)c3c(Cl)ncnc3Cl)cc2)cn(C)c1=O` [Compound I-100] displayed an IC50 of 50 nM.

`Cc1cc(-c2cccc(OC(F)F)c2)cn(C)c1=O` [Compound I-101] returned an IC50 of 503 nM. Against the preceding compound, the IC50 is about 10-fold higher.

`COc1cc(-c2cc(C)c(=O)n(C)c2)ccc1C(=O)N1CCNCC1` [Compound I-158] had an IC50 of 19 nM.

`Cc1cc(-c2cc(C)c(=O)n(C)c2)cc(C)c1C(=O)N1CCNCC1` [Compound I-160] came in with an IC50 of 33 nM.

Compound `COc1cc(C(=O)N2CCNCC2)ccc1-c1cc(C)c(=O)n(C)c1` [Compound I-161] showed an IC50 of 32 nM.

With `Cc1cc(-c2cc(C)c(=O)n(C)c2)ccc1C(=O)N1CCNCC1` [Compound I-162], the IC50 was 33 nM.

`CCS(=O)(=O)Cc1cc(-c2cc(C)c(=O)n(C)c2)ccc1C(=O)N1CCNCC1` [Compound I-169, 5-[3-Ethanesulfonylmethyl-4-(piperazine-1-carbonyl)-phenyl]-1,3-dimethyl-1H-pyridin-2-one] showed an IC50 of 29 nM. This IC50 and that of the compound before are within 1.5-fold of each other.

For the compound `Cc1cc(-c2ccc(C(=O)N3CCNCC3)c(CS(C)(=O)=O)c2)cn(C)c1=O` [Compound I-170], the IC50 turned out to be 29 nM.

Turning to `Cc1cc(-c2ccc(C(=O)N3CCN(C)CC3)c(CS(C)(=O)=O)c2)cn(C)c1=O` [Compound I-171], 103 nM corresponded to half-maximal inhibition (IC50).

`CCS(=O)(=O)Cc1cc(-c2cc(C)c(=O)n(C)c2)ccc1C(=O)N(C)C` [Compound I-172] gave an IC50 of 294 nM.

As for `COc1cc(C(=O)N2CCN(C)CC2)ccc1-c1cc(C)c(=O)n(C)c1` [Compound I-173, 5-[2-Methoxy-4-(4-methyl-piperazine-1-carbonyl)-phenyl]-1,3-dimethyl-1H-pyridin-2-one], the IC50 was determined as 151 nM.

In turn, `Cc1cc(-c2cc(C)c(=O)n(C)c2)ccc1C(=O)N1CCN(C)CC1` [Compound I-174] showed an IC50 of 106 nM.

For `Cc1cc(-c2ccc(C(=O)N3CCN(C)CC3)c3ccccc23)cn(C)c1=O` [Compound I-175], the IC50 came out at 135 nM. This IC50 and that of the compound before are within 1.5-fold of each other.

For `Cc1cc(-c2ccc(C(=O)N3CCN(C)CC3)c(Cl)c2)cn(C)c1=O` [Compound I-176], the IC50 came out at 204 nM.

For `Cc1cc(-c2ccc(C(=O)N3CCN(C)CC3)c(O)c2)cn(C)c1=O` [Compound I-188, 5-[3-Hydroxy-4-(4-methyl-piperazine-1-carbonyl)-phenyl]-1,3-dimethyl-1H-pyridin-2-one], the half-maximal inhibitory concentration (IC50) came out at 270 nM.

`Cc1cc(-c2ccc(CN3C[C@@H]4C[C@H]3CN4)cc2)cn(C)c1=O` [Compound I-189, 5-{4-[(S)-1-(2,5-Diaza-bicyclo[2.2.1]hept-2-yl)methyl]-phenyl}-1,3-dimethyl-1H-pyridin-2-one]: half-maximal inhibition (IC50) was put at 23 nM.

Consider `COc1cc(-c2cc(C)c(=O)n(C)c2)ccc1CN1CCNCC1` [Compound I-190, 5-(3-methoxy-4-piperazin-1-ylmethyl-phenyl)-1,3-dimethyl-1H-pyridin-2-one], for which the IC50 stood at 21 nM.

Take `COc1cc(-c2cc(C)c(=O)n(C)c2)ccc1CN1CCN(C)CC1` [Compound I-191, 5-[3-methoxy-4-(4-methyl-piperazin-1-ylmethyl)-phenyl]-1,3-dimethyl-1H-pyridin-2-one]: 3 nM corresponded to half-maximal inhibition (IC50).

`CNCc1ccc(-c2cc(C)c(=O)n(C)c2)cc1OC` [Compound I-192] returned an IC50 of 33 nM.

Compound `CN1CCN(C(=O)c2ccc(-c3cn(C)c(=O)c4ccccc34)cc2)CC1` [II-4] returned an IC50 of 86 nM.

Broadly, the IC50 is the point on the concentration scale where inhibition reaches its midpoint. Low readings indicate higher potency, high ones lower potency.
